Source: patent US3947411A, “Novel 1-aryl-2-arylalkyl-3-or-4-[4'-(substituted-alkyl)piperazino-1']butanols- 2-or-butenes-1, and methods of manufacture thereof” (Warner-Lambert Company, priority 1972, dated 1976)
Converted amounts (≈) assume the structure as drawn.

Assays:
Solubility in water = assay type: physicochemical; settings: hydrochlorides or oxalates, read-out: solubilities (in water)
Protocol: The following list contains examples of those compounds which are made according to the methods disclosed. (The individual compounds are identified by elementary analyses and infrared spectra, by ultra-violet or nuclear resonance spectra, if necessary.) Individual melting points and solubilities (in water) are also given as is the method by which each compound is prepared.
The melting points and solubilities are given for the Hydrochlorides I - XVI; XVIII - XXVII; XXIX - XXXV; XXXVII - XLII; XLIV - LXII; LXIV - LXVII, and the Oxalates XVII; […]; XXXVI; LXIII.

A. niger [1] = assay: Minimum inhibitory concentration for fungi, tube dilution, A. niger (Table IV); settings: Aspergillus niger, 48 h, read-out: Minimum Inhibitory Concentration, A. niger
Protocol: (§1) A tube dilution series of the respective compound in Sabouraud nutrient broth, whose individual tubes contained concentrations of 1024 μg, 512 μg, 256 μg, 128 μg, 64 μg, 32 μg, 16 μg, 8 μg, 4 μg, 2 μg, 1.1 μg and 0.5 μg/ml, was prepared and inoculated with a photometrically standardized suspension of the test organisms or the spores thereof.

Candida albicans = assay: Agar well inhibition zone test against fungi, Candida albicans (Table II); settings: quantity per well giving inhibition zone (500, 50, 5 μg tested); Sabouraud agar, 28°, 48 hours
Escherichia coli = assay: Agar well inhibition zone test against bacteria, Escherichia coli (Table III); settings: quantity per well giving inhibition zone (500, 50, 5 μg tested); nutrient agar, 37°, 24 hours
Protocol: The efficacy of the compounds against bacteria was tested as follows:
The test organisms, in this case Staphylococcus aureus and Escherichia coli, were inoculated on nutrient agar as described in Example 12, wells were punched, and the solutions of the compounds were transferred to fill the wells. The quantity of compound in the wells amounted again to 500 μg, 50 μg and 5 μg.
After incubation a 37° for 24 hours the quantity of compound was determined at which an inhibition of the organism's growth, in the form of an inhibition zone around the corresponding well, occurred.

Aspergillus niger = assay: Agar well inhibition zone test against fungi, Aspergillus niger (Table II); settings: quantity per well giving inhibition zone (500, 50, 5 μg tested); Sabouraud agar, 28°, 48 hours
A. niger [2] = assay: Minimum inhibitory concentration for fungi in presence of serum, A. niger (Table VI); assay type: cell-based; settings: Aspergillus niger; Sabouraud nutrient broth + 10% bovine serum, 28°C, 48 hours
Staphylococcus aureus = assay: Agar well inhibition zone test against bacteria, Staphylococcus aureus (Table III); settings: quantity per well giving inhibition zone (500, 50, 5 μg tested); nutrient agar, 37°, 24 hours
C. albicans [3] = assay: Minimum inhibitory concentration for fungi, tube dilution, C. albicans (Table IV); settings: Candida albicans, 48 h, read-out: Minimum Inhibitory Concentration, C. albicans
Protocol: as §1

Staph. aureus = assay: Minimum inhibitory concentration for bacteria, tube dilution, Staph. aureus (Table V); settings: Staphylococcus aureus, 48 h, read-out: Minimum Inhibitory Concentration, Staph. aureus
Protocol: A tube dilution series of the respective compound in nutrient broth whose individual tubes contained concentrations of 1024 μg, 512 μg, 256 μg, 128 μg, 64 μg, 32 μg, 1 μg, 8 μg, 4 μg, 2 μg, 1.1 μg and 0.5 μg/ml was prepared and inoculated with a photometrically standardized suspension of the test organisms.

C. albicans [4] = assay: Minimum inhibitory concentration for fungi in presence of serum, C. albicans (Table VI); assay type: cell-based; settings: Candida albicans; Sabouraud nutrient broth + 10% bovine serum, 28°C, 48 hours

| Compound | solubility (Solubility in water) | MIC (A. niger [1]) | Inhibition Area at μg, Cand. albicans (Candida albicans) | Inhibition Area at μg, E. coli (Escherichia coli) | Inhibition Area at μg, Asp. niger (Aspergillus niger) | MIC (A. niger [2]) | Inhibition Area at μg, Staph. aureus (Staphylococcus aureus) | MIC (C. albicans [3]) | MIC (Staph. aureus) | MIC (C. albicans [4]) |
| --- | --- | --- | --- | --- | --- | --- | --- | --- | --- | --- |
| OC(CCN1CCN(CCN2CCCCC2)CC1)(Cc1ccccc1)Cc1ccccc1 [LX, 1-phenyl-2-benzyl-4-[4'-(β-piperidinoethyl)-piperazino-1']-butanol-2] | 100 mg/mL (≈ 230 mM) | 64 µg/mL (≈ 0.147 mM) | 500 µg | 500 µg | 50 µg | 8 µg/mL | 500 µg | – | – | – |
| CN1CCN(CCCCCCN2CCN(CCC(O)(Cc3ccccc3)Cc3ccccc3)CC2)CC1 [LXI, 1-phenyl-2-benzyl-4-{4'-[w-(4"-methyl-piperazino-1")-n-hexyl]-piperazino-1'}-butanol-2] | 100 mg/mL (≈ 197 mM) | – | > 500 µg | > 500 µg | > 500 µg | – | > 500 µg | – | – | – |
| CC(N1CCN(CCN2CCN(c3ccccc3)CC2)CC1)C(O)(Cc1ccccc1)Cc1ccccc1 (stereo not drawn) [XI, 1-phenyl-2-benzyl-3-{4'-[β-(4"-phenyl-piperazino-1")-ethyl]-piperazino-1'}-butanol-2] | 50 mg/mL (≈ 97.5 mM) | – | 50 µg | > 500 µg | 500 µg | – | 50 µg | > 1020 µg/mL | > 1020 µg/mL | – |
| CC(C(=Cc1ccccc1)Cc1ccccc1)N1CCN(CCCl)CC1 (stereo not drawn) [XLIV, 1-phenyl-2-benzyl-3-(4'-β-chloro-ethyl-piperazino-1')-butene-1] | 10 mg/mL (≈ 27.1 mM) | > 1020 µg/mL | 50 µg | 500 µg | 50 µg | – | 500 µg | > 1020 µg/mL | – | – |
| CC(N1CCN(CCO)CC1)C(O)(Cc1ccccc1)Cc1ccccc1 (stereo not drawn) [XLVI, 1-phenyl-2-benzyl-3-[4'-(β-hydroxyethyl)-piperazino-1']-butanol-2] | 100 mg/mL (≈ 271 mM) | – | 500 µg | > 500 µg | 500 µg | – | 500 µg | – | – | – |
| CC(N1CCN(CCN(Cc2ccccc2)Cc2ccccc2)CC1)C(O)(Cc1ccccc1)Cc1ccccc1 (stereo not drawn) [XVI, 1-phenyl-2-benzyl-3-[4'-(β-dibenzylamino-ethyl)-piperazino-1']-butanol-2] | 50 mg/mL (≈ 91.3 mM) | – | > 500 µg | > 500 µg | > 500 µg | – | > 500 µg | – | – | – |
| CCN(CCN1CCN(C(C)C(O)(Cc2ccccc2)Cc2ccccc2)CC1)Cc1ccccc1 (stereo not drawn) [XVII, 1-phenyl-2-benzyl-3-[4'-(β-N-ethyl-N-benzyl-aminoethyl)-piperazino-1']-butanol-2] | 100 mg/mL (≈ 206 mM) | – | 500 µg | > 500 µg | 500 µg | – | > 500 µg | – | – | – |
| CC(N1CCN(CCN(C)c2ccccc2)CC1)C(O)(Cc1ccccc1)Cc1ccccc1 (stereo not drawn) [XVIII, 1-phenyl-2-benzyl-3-[4'-(β-N-phenyl-N-methyl-aminoethyl)-piperazino-1']-butanol-2] | 10 mg/mL (≈ 21.9 mM) | – | > 500 µg | > 500 µg | > 500 µg | – | > 500 µg | – | – | – |
| CC(C(=Cc1ccccc1)Cc1ccccc1)N1CCN(CCN2CCOCC2)CC1 (stereo not drawn) [XXXI, 1-phenyl-2-benzyl-3-[4'-(β-morpholino-ethyl)-piperazino-1']-butene-1] | 100 mg/mL (≈ 238 mM) | 64 µg/mL (≈ 0.153 mM) | 500 µg | > 500 µg | 50 µg | – | 50 µg | – | 128 µg/mL (≈ 0.305 mM) | – |
| CC1CCCN(CCN2CCN(C(C)C(=Cc3ccccc3)Cc3ccccc3)CC2)C1 (stereo not drawn) [XXXIV, 1-phenyl-2-benzyl-3-{4'-[β-(3"-methylpiperidino)-ethyl]-piperazino-1'}-butene-1] | 25 mg/mL (≈ 57.9 mM) | 32 µg/mL (≈ 0.0741 mM) | 50 µg | 500 µg | 50 µg | – | 50 µg | 16 µg/mL (≈ 0.0371 mM) | 128 µg/mL (≈ 0.297 mM) | – |
| CC(C(=Cc1ccccc1)Cc1ccccc1)N1CCN(CCN2CCN(Cc3ccccc3)CC2)CC1 (stereo not drawn) [XXXVII, 1-phenyl-2-benzyl-3-{4'-[β-(4"-benzylpiperazino-1")-ethyl]-piperazino-1'}-butene-1] | 50 mg/mL (≈ 98.3 mM) | 128 µg/mL (≈ 0.252 mM) | 5 µg | 500 µg | 5 µg | – | 5 µg | 8 µg/mL (≈ 0.0157 mM) | 16 µg/mL (≈ 0.0314 mM) | 512 µg/mL |
